Source: patent US4757068A, “Lactams and bicyclic lactams useful as cholecystokinin antagonists” (Merck & Co., Inc., priority 1985, dated 1988)

How the values were obtained:
CCK receptor [1] = assay: 125I-CCK-33 receptor binding (pancreas or brain; tissue not stated); settings: 125I-CCK-33; tissue (rat pancreas or guinea pig brain) not stated; read-out: inhibition of specific 125I-CCK-33 binding, IC50
Procedure: (§1) CCK-33 was radiolabeled with ^125 I-Bolton Hunter reagent (2000 Ci/mmole) as described by Sankara et al. (J. Biol. Chem. 254: 9349-9351, 1979). Receptor binding was performed according to Innis and Snyder (Proc. Natl. Acad. Sci. 77: 6917-6921, 1980) with the minor modification of adding the additional protease inhibitors, phenylmethane sulfonyl fluoride and o-phenanthroline.
(§2) Male Sprague-Dawley rats (200-350g) were sacrificed by decapitation. The whole pancreas was dissected free of fat tissue and was homogenized in 20 volumes of ice-cold 50 mM, Tris HCl (pH 7.7 at 25° C.) with a Brinkmann Polytron PT 10. The homogenates were centrifuged at 48,000 g for 10 min. Pellets were resuspended in Tris Buffer, centrifuged as above and resuspended in 200 volumes of binding assay buffer (50 mM Tris HCl, pH 7.7 at 25° C., 5 mM dithriothriethel, 0.1 mM bacitracin, 1.2 mM phenylmethane sulfonyl fluoride, and 0.5 mM phenathroline). […] All assays were run in duplicate or triplicate. The reaction mixtures were incubated at 37° C. for 30 minutes and centrifuged in a Beckman Microfuge (4 minutes) immediately after adding 1 ml of ice-cold incubation buffer. The supernatant was aspirated and discarded, pellets were counted with a Beckman gamma 5000.
(§3) CCK-33 was radiolabeled and the binding was performed according to the description for the pancreas method with modifications according to Saito et al. (J. Neurochem., 37, 483-490 (1981)).
(§4) Male Hartley guinea pigs (300-500g) were sacrificed by decapitation and the brains were removed and placed in ice-cold 50 mM, Tris HCl plus 7.58 g/l Tritma-7.4 (pH 7.4 at 25° C.) Cerebral cortex was dissected and used as a receptor source. Each gram of fresh guinea pig brain tissue was homogenized in 10 ml of Tris/Trizma buffer with a Brinkman polytron PT-10. The homogenates were centrifuged at 42,000 g for 15 min. Pellets were resuspended in Tris Buffer, centrifuged as above and resuspended in 200 volumes of binding assay buffer (10 mM HEPES, pH 7.7 at 25° C., 5 mM MgCl2, 1 mM EGTA, 0.4% BSA (bovine serum albumin), and 0.25 mg/ml bacitracin). […] All assays were run in duplicate or triplicate. The reaction mixtures were incubated at 25° C. for 2 hours and centrifuged in a Beckman Microfuge (4 minutes) immediately after adding 1 ml of ice-cold incubation buffer. The supernatant was aspirated and discarded, pellets were counted with a Beckman gamma 5000.

CCK receptor [2] = target: T1, CCK receptor (Rattus norvegicus, UniProt P30551); assay: as above; settings: added protease inhibitors in binding buffer
T1 construct: from tissue
T1 sequence (P30551 1-444): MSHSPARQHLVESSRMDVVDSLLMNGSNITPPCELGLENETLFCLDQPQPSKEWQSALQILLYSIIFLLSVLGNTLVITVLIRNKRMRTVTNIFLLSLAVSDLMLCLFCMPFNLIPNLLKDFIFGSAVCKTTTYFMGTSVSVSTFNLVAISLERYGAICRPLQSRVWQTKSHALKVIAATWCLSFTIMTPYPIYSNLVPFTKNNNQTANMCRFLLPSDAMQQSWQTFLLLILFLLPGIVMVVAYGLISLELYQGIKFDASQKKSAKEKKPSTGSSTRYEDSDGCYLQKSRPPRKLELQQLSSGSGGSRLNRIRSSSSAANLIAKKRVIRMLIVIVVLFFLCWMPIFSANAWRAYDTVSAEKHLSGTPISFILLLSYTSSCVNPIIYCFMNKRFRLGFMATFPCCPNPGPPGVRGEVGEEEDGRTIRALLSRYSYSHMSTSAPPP
Procedure: as §1, §2, §3, §4

CCK receptor [3] = settings: various members of the cyclic nucleotide class, literature; cited from earlier work

Row | SMILES | IC50 (CCK receptor [1]) [µM] | effect on the 125I-CCK receptor binding assay (CCK receptor [2]) | other results
1 | c1cnc2c(c1)ccc1cccnc12 [o-phenanthroline] |  | no effect | 
2 | O=S(=O)(F)Cc1ccccc1 [phenylmethane sulfonyl fluoride] |  | no effect | 
3 | CCCC(=O)Nc1nc2c(ncn2[C@@H]2O[C@@H]3COP(=O)(O)O[C@H]3[C@H]2OC(=O)CCC)c(=O)[nH]1 [dibutyryl cyclic GMP] |  |  | potency rank among cyclic nucleotide CCK antagonists (CCK receptor [3]): most potent

More lines, main results first:

Row | IC50 (CCK receptor [1]) [µM] | SMILES | effect on the 125I-CCK receptor binding assay (CCK receptor [2]) | other results
4 | 72 | COC(=O)CN1C(=O)C(C)(NC(CCc2ccccc2)C(=O)OC)CCc2ccccc21 (centres unmarked) [1-Carbomethoxymethyl-3-(1-carbomethoxy-3-phenylpropyl)amino-3-methyl homodihydrocarbostyril] |  | 
5 | 32 | CCOC(=O)C(CCc1ccccc1)NC1CCCC(c2ccccc2)N(CC(=O)OC)C1=O (single isomer, unassigned) [1-Carbomethoxymethyl-3-(1-carbethoxy-3-phenylpropyl)amino-7-phenylperhydroazepin-2-one] |  | 
